# Assay results as given in patent publication US7053249B2, “Metal chelates and methods of using them for time-resolved fluorescence” (IDEXX Laboratories, Inc., priority 2002, dated 2006).
# Tests used:
# [1] = pH range of stable chelate formation; assay type: physicochemical; conditions: Eu chelate
# Text: (§1) As mentioned earlier, it is necessary to form the enolate of the dicarbonyl compound for complex formation with metal to occur. […] It is usually (by not universally) desirable to stay below pH 9.0 to allow chelate stability under physiological assay conditions.
# [2] = pKa of the enolic carbon of the β-diketone ligands; conditions: β-diketone ligand
# Text: as §1
smiles,measurement,setting,value
O=C(CC(=O)c1ccc2ccccc2c1)c1cc(F)cc(F)c1 [compound 4],pH above which a stable chelate is formed,[1],> 4.5 pH
same,pKa for the enolic carbon,[2],~4.2
